Experimental findings from patent EP0107350A1, “Sulfon amides” (Beecham Wuelfing GmbH & Co KG, priority 1982, dated 1984) are described below.

The test system of this assay is Guinea pigs. Nature of the assay: Electrostimulation test (antiarrhythmic effect; voltage needed to induce extrasystoles/arrhythmias by electrostimulation of the right ventricle). Format: in vivo. The conditions noted are these: anaesthetized Guinea pigs (Urethane 1.2 g/kg i.p.), substances given intraduodenally 30 min before stimulation; 6 treated vs 6 control animals; * = statistically significant p<0.05; dose not given. As to the method:
According to the method described by […]. and PAPP, G J., (Naunyn-Schmiedebergs Arch. exp. Path. Pharmak. 245, 70 (1963), arrhythmias are induced in Guinea pigs by electostimulation of the right ventricle of the heart. The animals are anaesthetized with Urethane (1.2 g/kg i.p.) and artificially respired before a needle electrode is inserted in the right ventricle of the heart. Substances are given intraduodenally 30 min before the stimulation. The voltage needed for induction of extrasystoles in 6 control animals (n=6) is compared with that required for induction of arrhythmias in 6 treated animals (n=6). The difference is statistically evaluated by the unpaired t-test (STUDENT). This method was used to evaluate the compounds of the present invention. In Tables 1 and 2, ^* means statistically significant p<0.05.

Take `Cc1cc(C)c(S(=O)(=O)NC(C)CCCN2CCCCC2C)c(C)c1` (stereo not shown) [(1)]: the “% Increase in Test Voltage” value was 89.4* %.

`CC(CN1CCCCC1)NS(=O)(=O)c1cc(Cl)c(Cl)cc1Cl.Cl` (stereo not shown) [(2), 1-[2-(2,4,5-trichlorobenzenesulphonamido)-propyl] piperidinium chloride]: the “% Increase in Test Voltage” value is on record as 29.6* %.

`Cc1cc(C)c(S(=O)(=O)NC(C)CCCN2CC(C)CC2C)c(C)c1` (stereo not shown) [(3)]: the “% Increase in Test Voltage” value is listed as 87.7* %.

Turning to `CC1CCCCN1CC(O)CNS(=O)(=O)c1cc(Cl)c(Cl)cc1Cl` (stereo not shown) [(4)], the “% Increase in Test Voltage” value is on record as 60.6* %.

Regarding `Cc1cc(C)c(S(=O)(=O)NCC(O)CN2CCCC2)c(C)c1` (stereo not shown) [(5)], the “% Increase in Test Voltage” value was 29.5* %.

On to `Cc1cc(C)c(S(=O)(=O)NCC(O)CN2CC(C)CC2C)c(C)c1` (stereo not shown) [(6)], for which the “% Increase in Test Voltage” value is 12.1* %.

In the case of `Cc1cc(C)c(S(=O)(=O)NCC(O)CN2CCCCC2C)c(C)c1` (stereo not shown) [(7)], the “% Increase in Test Voltage” value is given as 13.4* %.
